Series [1] has as its target T1, human D4 dopamine receptor (DA D4) (Homo sapiens, UniProt P21917).
T1 sequence (P21917 1-419): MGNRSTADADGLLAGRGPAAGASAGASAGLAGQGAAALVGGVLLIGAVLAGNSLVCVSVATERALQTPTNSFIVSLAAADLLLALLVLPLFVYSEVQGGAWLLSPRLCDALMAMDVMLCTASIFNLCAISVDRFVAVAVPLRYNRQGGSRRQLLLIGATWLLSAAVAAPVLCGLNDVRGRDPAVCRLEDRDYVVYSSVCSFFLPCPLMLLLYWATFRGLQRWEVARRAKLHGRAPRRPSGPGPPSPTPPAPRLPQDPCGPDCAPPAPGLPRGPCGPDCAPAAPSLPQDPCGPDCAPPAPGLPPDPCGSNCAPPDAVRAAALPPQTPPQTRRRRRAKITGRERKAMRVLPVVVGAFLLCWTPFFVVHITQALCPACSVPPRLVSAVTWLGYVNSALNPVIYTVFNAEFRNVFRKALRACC
Briefly: inhibition of radioligand binding to the human D4 dopamine receptor. As for the experimental part:
Compounds were tested for their ability to bind to dopamine receptors as measured by their inhibition of [^3 H]spiperone binding to the human D2, D3 receptors in a receptor assay described by MacKenzie R. G., VanLeeuwen D., Pugsley T. A., et al., "Characterization of the human dopamine D3 receptor expressed in transfected cell lines." Eur. J. Pharmacol.-Mol. Pharmacol., 1994;266:79-85; for the human D4 dopamine receptor in a receptor assay by Pugsley T. A., Davis M. D., Akunne H. C., et al., "CI-1007, a dopamine partial agonist and potential antipsychotic agent. I. Neurochemical Effects." J. Pharmacol. Exp. Ther., 1995;274:898-911; and for ability to block the action of an agonist in a [^3 H]thymidine incorporation assay described by Lajiness N. E., Chio C. L., Huff R. M., "D2 dopamine receptor stimulation of mitogenesis in transfected Chinese hamster ovary cells: relationship to dopamine stimulation of tyrosine phosphorylations." J. Pharmacol. Exp. Ther., 1993;267:1573-81. This test determines the agonist/antagonist character of a compound by measuring [^3 H]thymidine update in Chinese hamster ovary (CHO) pro-5 cells expressing the DA D4 receptor. Agonists, such as quinpirole, promote cell growth and subsequent [^3 H]thymidine incorporation, while antagonists block the action of agonists. […] The above test methods are incorporated herein by reference.

For series [2], the target named is human D3 receptor (DA D3) (Homo sapiens, UniProt P35462). The experiment in a line: inhibition of [^3 H]spiperone binding to the human D3 receptor. The settings on record: human D3, [^3 H]spiperone.
Sequence of human D3 receptor (DA D3) (P35462 whole entry): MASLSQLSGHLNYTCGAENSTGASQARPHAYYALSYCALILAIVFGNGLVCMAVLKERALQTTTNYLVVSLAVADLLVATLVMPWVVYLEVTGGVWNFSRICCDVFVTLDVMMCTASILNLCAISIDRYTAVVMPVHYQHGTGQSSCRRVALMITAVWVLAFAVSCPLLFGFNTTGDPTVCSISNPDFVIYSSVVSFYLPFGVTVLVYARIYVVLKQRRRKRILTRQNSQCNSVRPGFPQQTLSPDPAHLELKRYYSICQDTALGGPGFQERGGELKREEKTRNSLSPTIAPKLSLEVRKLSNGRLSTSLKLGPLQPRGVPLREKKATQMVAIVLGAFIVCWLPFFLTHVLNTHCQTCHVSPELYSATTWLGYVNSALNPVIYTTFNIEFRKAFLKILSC
Series [3] concerns the target human D2 receptor (DA D2) (Homo sapiens, UniProt P14416). The experiment in a line: inhibition of [^3 H]spiperone binding to the human D2 receptor. The settings on record: human D2, [^3 H]spiperone.
Series [4] deals with DA D4 receptor. The settings on record: D4 versus D2; Van Tol et al., Nature 1991; cited from earlier work.
For series [5] the following is noted: clozapine, background section; cited from earlier work.

SMILES strings stand for the structures. pKi: −log10 of the molar value. Structures can show the parent of a compound that is named as a salt.

Data on ten compounds can be found in US5965560A, “Substituted piperazines and piperidines as central nervous system agents” (priority 1997, dated 1999).

Sequence of human D2 receptor (DA D2) (P14416 whole entry): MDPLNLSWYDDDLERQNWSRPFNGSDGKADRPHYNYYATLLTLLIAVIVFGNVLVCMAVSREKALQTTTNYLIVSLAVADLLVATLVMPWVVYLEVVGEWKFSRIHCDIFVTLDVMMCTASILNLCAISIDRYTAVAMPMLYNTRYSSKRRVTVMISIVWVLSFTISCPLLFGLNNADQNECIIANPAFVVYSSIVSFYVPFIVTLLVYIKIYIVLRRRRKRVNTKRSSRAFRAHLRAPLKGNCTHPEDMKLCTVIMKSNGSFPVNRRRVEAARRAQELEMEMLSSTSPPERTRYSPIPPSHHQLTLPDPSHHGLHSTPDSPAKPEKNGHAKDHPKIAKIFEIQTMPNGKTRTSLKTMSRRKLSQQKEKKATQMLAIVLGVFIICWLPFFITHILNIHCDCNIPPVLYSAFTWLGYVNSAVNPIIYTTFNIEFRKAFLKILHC

With `COc1cc(CN2CCN(c3cccc(C)c3)CC2)cc(OC)c1OC` [Example 7, 1-m-Tolyl-4-(3,4,5-trimethoxybenzyl)piperazine, monohydrochloride], the pKi in series [1] is 8.07; in series [2], 5.56; in series [3] it was 5.84.

In the case of `COc1cc(CN2CCN(c3ccc(C)cc3)CC2)cc(OC)c1OC` [Example 8, 1-p-Tolyl-4-(3,4,5-trimethoxybenzyl)piperazine, monohydrochloride], the pKi was 8.12 in series [1], 5.17 in series [2] and 5.85 in series [3].

Consider `COc1cc(CN2CCN(c3cccc(Cl)c3C)CC2)cc(OC)c1OC` [Example 19, 1-(3-Chloro-2-methylphenyl)-4-(3,4,5-trimethoxybenzyl)-piperazine, monohydrochloride], for which the values for the pKi in series [1], in series [2] and in series [3] were 8.21, 5.67 and 5.98, respectively.

`COc1cc(CN2CCN(c3ccc(C)c(Cl)c3)CC2)cc(OC)c1OC` [Example 20, 1-(3-Chloro-4-methylphenyl)-4-(3,4,5-trimethoxybenzyl)-piperazine, monohydrochloride]: the negative logarithm of the Ki (pKi) in series [1] is 8.35; in series [2], 5.69; in series [3], 5.48.

For the compound `COc1cc(CN2CCN(c3cc(Cl)ccc3C)CC2)cc(OC)c1OC` [Example 21, 1-(5-Chloro-2-methylphenyl)-4-(3,4,5-trimethoxybenzyl)-piperazine, monohydrochloride], the values for the pKi in series [1], in series [2] and in series [3] were 8.19, 5.45 and 5.81, respectively.

With `COc1cccc(CN2CCN(c3cccc(C)c3Cl)CC2)c1OC` [Example 26, 1-(2-Chloro-3-methylphenyl)-4-(2,3-dimethoxybenzyl)-piperazine, monohydrochloride], the pKi in series [1] is 7.90; in series [2], 5.58; in series [3], 5.54.

For the compound `COc1ccc(CN2CCN(c3cccc(C)c3Cl)CC2)c(OC)c1` [Example 27, 1-(2-Chloro-3-methylphenyl)-4-(2,4-dimethoxybenzyl)-piperazine, monohydrochloride], the results for the pKi in series [1], in series [2] and in series [3] were 8.36, 6.39 and 6.12, respectively.

Consider `COc1ccc(OC)c(CN2CCN(c3cccc(C)c3Cl)CC2)c1` [Example 28, 1-(2-Chloro-3-methylphenyl)-4-(2,5-dimethoxybenzyl)-piperazine, monohydrochloride], for which the pKi was 7.95 in series [1], 6.14 in series [2] and 5.68 in series [3].

For the compound `COc1ccc(CN2CCN(c3cccc(C)c3Cl)CC2)cc1OC` [Example 29, 1-(2-Chloro-3-methylphenyl)-4-(3,4-dimethoxybenzyl)-piperazine, monohydrochloride], the pKi in series [1] is 8.30; in series [2], 5.92; in series [3], 5.63.

For `CN1CCN(C2=Nc3cc(Cl)ccc3Nc3ccccc32)CC1` [clozapine], the “affinity for the DA D4 receptor relative to D2” value in series [4] was “tenfold higher affinity”. In addition, the “extrapyramidal side effects and tardive dyskinesia” value in series [5] was “lack of extrapyramidal side effects and tardive dyskinesia”.
